Measurements: article PMC12703428, “Development of Granzyme A Turn‐ON Fluorescent Activity‐Based Probes” (Chembiochem, 2025)
Square brackets hold non-standard residues; d marks the D form. Ends that are not written are not given here. Oic = O=C(O)[C@@H]1C[C@@H]2CCCC[C@@H]2N1; Tic = O=C(O)[C@@H]1Cc2ccccc2CN1

Tested on: lysates of MDA‐MB‐231, HEK293T, Jurkat, and HeLa cells
Assay: Labeling in lysates of GzmA nonexpressing cells
Type: biochemical
Conditions: HeLa lysates 1 mg/mL, 1 h, 37 °C
Protocol: Figure 4 Characterization of qABPs in native proteomes. A) Labeling of GzmA by 5 and 6 in lysates of various cell lines (1 h, 37 °C). B) Stability of 5 and 6 in buffer and cell media (11 h, 37 °C). The hydrolysis of probes was measured by monitoring the production of Cy5 fluorescence signal over time. […] C) Labeling of GzmA by probes 3 –6 in NK‐92 cells (2 h, 37 °C). D) Flow cytometry analysis of protein labeling in NK‐92 cells by 3 –5. […] E) Flow cytometry analysis of concentration‐dependent GzmA labeling in NK‐92 cells and S/N of 5 (5 μM, 2 h, 37 °C). […]
Briefly, hGzmA (50 nM) was incubated with either inhibitor 1 or 2 (200 nM), and GzmA fluorogenic substrate […] (100 µM) in 50 mM Tris, 150 mM NaCl, 0.01% Triton X-100 (pH 8) for 15 hr at 37 °C. Recorded fluorescence at Ex/Em: 380/460 nm for residual GzmA […]
Cat. No. CRL-2570) and 4T1 (ATCC Cat. No. CRL-2539) cells were cultured in RPMI supplemented with 10% fetal bovine serum (FBS), 1% penicillin/streptomycin (PS), and 2 mM L-glutamine, while HEK293T and MDA-MB-231 cells (ATCC Cat. No. HTB-26) were cultured in DMEM supplemented likewise as described above. […] The supernatant was collected, and protein concentration was measured using a Pierce BCA protein assay. […]
C. In-gel fluorescence imaging […]

Substance | Cross-reactivity in lysates of GzmA nonexpressing cells
IGNR [compound 5] | no detectable cross‐reactivity
[Tic]G[Oic]R [compound 6] | no detectable cross‐reactivity
